Laboratory results from patent US20190015385A1, “VITAMIN E PHOSPHATE OR ACETATE FOR USE IN THE TREATMENT AND PREVENTION OF BIOFILM INFECTIONS” (priority 2016, published 2019).

Columns and labels:
[1] = system: P. aeruginosa; experiment: Anti-adhesion activity on coated titanium disks, CFU count (Example 3); format: cell-based, Pseudomonas aeruginosa; settings: 5 mg/cm^2 coating, 30, 60 and 120 minutes
Method: Sterile disks of sandblasted titanium with a diameter of 25 mm and a thickness of 5 mm (Adler Ortho, Cormano, Italy) were used as the substrate for the formation of biofilms. The disks were coated with sub-inhibitory concentrations of vitamin E acetate (5 mg/cm^2) or vitamin E phosphate (5 mg/cm^2). The concentrations were selected based on the MIC results. Uncoated disks were used as negative controls. The anti-adhesion activity of vitamin E was assessed against a representative strain for each species. An overnight bacteria culture was resuspended in Brain Heart Infusion Broth (BHI; Biomérieux) at a density of 1.0×10^7 CFU/ml for each strain, and 400 microliters of microbial suspension were inoculated on coated and uncoated disks. The test was performed in triplicate for each strain. After 30, 60 and 120 minutes of incubation, the disks were washed twice with a sterile saline solution to eliminate non-adherent bacteria. The disks were then immersed in 5 ml of a 0.1 w/v % dithiothreitol solution (DTT, Sigma-Aldrich, Milan, Italy) and mechanically stirred for 15 minutes at room temperature. Suitable dilutions of the fluids obtained were inoculated on Tryptic Soy Agar (TSA, Merck) and incubated at 37° C. in an aerobic atmosphere for 24 hours for the CFU count.

[2] = system: P. aeruginosa; experiment: MIC and MBC, broth microdilution (Example 3); format: cell-based, Pseudomonas aeruginosa; settings: P. aeruginosa strains
Text: (§1) This study used clinically relevant strains isolated from patients with prosthetic joint infections at the Microbiology Laboratory of the IRCCS Galeazzi Orthopaedic institute (Italy). In particular, the following were selected: strains of methicillin-resistant Staphylococcus epidermidis, of methicillin-resistant Staphylococcus aureus and of Pseudomonas aeruginosa. These strains were identified beforehand by means of biochemical assays (VITEK® 2 Compact, bioMérieux, Marcy l'Etoile, France) and stored at −80° C. prior to the analysis. Before beginning the study, all strains were screened to assess their ability to produce biofilms, according to the spectrophotometric assay described by Christensen et al. (J Clin Microbiol 1985; 22: 996-1006).
(§2) The bacteriostatic and bactericidal activity of vitamin E acetate and vitamin E phosphate against the above-mentioned bacterial strains was assessed by measuring the minimum inhibitory concentration (MIC) and the minimum bactericidal concentration (MBC). MIC, defined as the lowest concentration capable of inhibiting bacterial growth, was determined using the broth microdilution method according to EUCAST guidelines (http://www.eucast.org/clinical_breakpoints/).
(§3) In short, a suspension in Brain Heart Infusion Broth (BHI; Biomérieux, Marci l'Etoile, France) was prepared for each bacterial strain, with an optical density of 0.5 McFarland (1.5×10^8 CFU/ml). The P. acnes broth was supplemented with 5% defibrinated sheep blood (Liofilchem, Roseto degli Abruzzi, Italy). After a concentration of 10^5 UFC/ml was obtained using appropriate dilutions, each suspension was inoculated in a 96-well microtitre plate containing a two-fold serial dilution of vitamin E acetate (VitE-Ac) and vitamin E phosphate. The controls were performed by inoculating bacterial suspensions in BHI alone. […] After incubation at adequate conditions, MBC was read as the lowest concentration capable of killing 99.9% of the initial inoculum.

[3] = system: S. epidermidis; experiment: MIC and MBC, broth microdilution (Example 3); format: cell-based, Staphylococcus epidermidis; settings: S. epidermidis strains
Text: as §1, §2, §3

[4] = system: Staphylococcus epidermidis; experiment: Anti-biofilm activity, crystal violet spectrophotometric assay (Example 1); format: cell-based; settings: S. epidermidis
Method: (§4) The bacterial biofilm was formed in a sterile 96-well polystyrene plate. In short, a microbial suspension was prepared at an optical density of 0.5 McFarland for each strain. 20 μl of microbial suspension were added to each well containing 180 μl of VitE at various concentrations. Positive controls were performed by inoculating the bacteria in BHI+HA. Following incubation for 24 h at 37° C., the broth was removed, together with non-adherent microorganisms, and 200 μl of broth were added once again. The plates were incubated at 37° C. for another 48 h, until a mature biofilm was obtained.
(§5) The amount of biofilm was determined by means of a spectrophotometric assay, adopting the method developed by Christensen et al. (1985). At the end of the incubation period, the culture medium was removed and the wells covered by the biofilm were washed twice with a sterile saline solution and then dried. The biofilm was stained with 200 μl of a 5% crystal violet solution for 10 minutes. After staining, the wells were washed with a sterile saline solution to remove excess stain and left to dry completely. Lastly, 200 μl of 96% ethanol were added to each well to re-solubilize the stain included in the biofilm. Absorbance of the crystal violet was measured at 595 nm using a microplate reader. The assay was conducted in triplicate for each bacterial strain and repeated twice.

[5] = system: Staphylococcus aureus; experiment: as above; format: cell-based; settings: S. aureus
Method: as §4, §5

[6] = system: Escherichia coli; experiment: as above; format: cell-based; settings: E. coli
Method: as §4, §5

[7] = system: Candida albicans; experiment: as above; format: cell-based; settings: C. albicans
Method: as §4, §5

[8] = system: Pseudomonas aeruginosa; experiment: as above; format: cell-based; settings: P. aeruginosa
Method: as §4, §5

[9] = kills 99.9% of the initial inoculum

SMILES: CC(=O)Oc1c(C)c(C)c2c(c1C)CCC(C)(CCC[C@H](C)CCC[C@H](C)CCCC(C)C)O2 (stereo partly drawn) [Vitamin E acetate, α-tocopherol acetate]
- decrease in adhesion (in words) [1]: No effect
- MIC range ([2]; 24 hours): >200 mg/mL
- MBC range [2, 9]: >200 mg/mL
- MIC range ([3]; 24 hours): >200 mg/mL
- MBC range [3, 9]: >200 mg/mL
- reduction of microbial biofilm with respect to the control ([4]; 2.5% VitE in HA carrier): 30%
- reduction of microbial biofilm with respect to the control ([4]; 5% VitE in HA carrier): 46%
- reduction of microbial biofilm with respect to the control ([5]; 2.5% VitE in HA carrier): 63%
- reduction of microbial biofilm with respect to the control ([5]; 5% VitE in HA carrier): 79%
- reduction of microbial biofilm with respect to the control ([6]; 2.5% VitE in HA carrier): 18%
- reduction of microbial biofilm with respect to the control ([6]; 5% VitE in HA carrier): 38%
- reduction of microbial biofilm with respect to the control ([7]; 2.5% VitE in HA carrier): 24%
- reduction of microbial biofilm with respect to the control ([7]; 5% VitE in HA carrier): 37%
- reduction of microbial biofilm with respect to the control ([8]; 2.5% VitE in HA carrier): 24%
- reduction of microbial biofilm with respect to the control ([8]; 5% VitE in HA carrier): 39%
